Data from paper PMC6283615, “Anilinoquinoline based inhibitors of trypanosomatid proliferation” (PLoS Neglected Tropical Diseases, 2018).
In brackets after ≈: the same amount, converted by molar mass. Entries after “also recorded” stand apart in the source; their conditions may differ.

Experiments:
L. major amastigote = assay: L. major intracellular amastigote luciferase assay in RAW 264.7 macrophages; assay type: cell-based, Leishmania major; settings: Leishmania major, RAW264.7; intracellular amastigotes in RAW 264.7 macrophages, 96 h
Procedure, shortened: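 Murine RAW 264.7 macrophages were infected overnight with luciferase-expressing L. major metacyclic promastigotes (MOI 1:10). Non-internalized parasites were washed off before 96 h compound exposure (0.5–10,000 ng/mL) at 37°C, 5% CO2.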

T. congolense IL3000 = assay: In vitro drug sensitivity assay for T. congolense (72 h); assay type: cell-based; settings: Trypanosoma congolense, IL3000 strain
Description: In vitro drug sensitivity assay for T. congolense (72 h): Compounds were tested in vitro for efficacy against the IL3000 T. congolense (drug sensitive) strain which was originally derived from the Trans Mara I strain, isolated from a bovine in 1966 in Kenya. […] Compounds were assayed in at least three separate, independent experiments and an 11-point dilution curve was used to determine the EC50 values. Bloodstream form trypanosomes were supported in HMI-9 medium containing 20% bovine serum and were incubated with test compounds for 69 h at 34°C in a humidified atmosphere containing 5% CO2. Thereafter, 10 μL of Resazurin dye (12.5 mg in 100 mL of phosphate-buffered saline, Sigma-Aldrich, Buchs, Switzerland) was added for an additional 3 h. Plates were read using a fluorescence plate reader (Spectramax, Gemini XS, Bucher Biotec, Basel, Switzerland) using an excitation wavelength of 536 nm and an emission wavelength of 588 nm.

[1] = tested on: T. vivax STIB 719 / ILRAD 560; assay: Ex vivo drug sensitivity assay for T. vivax (48 h); assay type: cell-based; settings: Trypanosoma vivax, STIB719, 48 h
Description: Ex vivo drug sensitivity assay for T. vivax (48 h): Compounds were tested ex vivo against the STIB 719 / ILRAD 560 T. vivax (drug sensitive) strain which originated from the Y486 strain, isolated from a naturally infected bovine in 1976 in Zaria, Nigeria. Compounds were assayed in at least three separate, independent experiments and an 11-point dilution curve was used to determine the EC50 values. Bloodstream form trypanosomes were harvested from a highly parasitaemic mouse (via cardiac puncture) and were incubated with test compounds for 45 h at 37°C in a humidified atmosphere containing 5% CO2, supported in HMI-9 medium containing 20% bovine serum. Thereafter, Resazurin dye was added to monitor trypanosome viability as described in the preceding section.

Aqueous solubility = assay type: physicochemical
[2] = Human liver microsome intrinsic clearance; assay type: in vitro ADME
[3] = Rat hepatocyte intrinsic clearance; assay type: in vitro ADME; settings: hepatocytes
LogD7.4 = assay type: physicochemical; settings: pH 7.4
T. brucei brucei CA427 = assay: Murine model of acute HAT (T. b. brucei infected mice); assay type: in vivo
Description: Bloodstream form (BSF) T. brucei brucei CA427 parasites were maintained at densities below 1×10^6 cells/mL in HMI-9 media supplemented with 10% fetal bovine serum (Atlanta Biologicals), 10% SERUM PLUS (Sigma), and 1% Antibiotic-Antimycotic Solution (Corning cellgro) at 37°C, 5% CO2 [18]. Parasites were centrifuged at 5000 xg for 3 min at room temperature and resuspended in cold 1xPBS containing 1% glucose to yield a solution of 2.5×10^6 cells/mL. Correct cell density following resuspension was confirmed using a Z2 Coulter Counter (Beckman). Parasite viability was observed by motility with a Neubauer Bright-line hemocytometer. Cells were kept on ice until infection.
Compound 14 –on day 0, female Swiss-Webster mice (8–10 weeks old, 20–25 g, n = 4 per group) (Harlan) were infected i.p. with 2.5×10^5 trypanosomes by injecting 100 μL of resuspension using 26G needles. Day 1 to 3 post-infection, mice received a single i.p. dose of either drug vehicle (dimethylsulfoxide, 3.4 mL/kg) (Fisher Scientific) or drug (14, 25 mg/kg). Parasitemia was determined on days 2 and 3 post-infection by collecting 3 μL of blood from the tail vein.
Day 1 to 3 post-infection, mice received a single p.o. dose of either drug vehicle (10% NMP and 90% PEG, 10 mL/kg) (Fisher Scientific) or drug (22, 60 mg/kg). From days 4 to 6, the dose was increased to 70 mg/kg for the mice in the treatment group. Parasitemia was determined on days 3 to 6 post-infection by collecting 3 μL of blood from the tail vein.
Blood samples were mixed with 21 μL of RBC Lysis Solution (Qiagen) and incubated at room temperature for 15–45 min prior to observing for parasites by hemocytometer. Humane euthanasia by CO2 overdose followed by incision to form a bilateral pneumothorax was conducted on mice at study termination. All animal experimental protocols were approved and performed in accordance with the guidelines of the Institutional Animal Care and Use Committee (IACUC) at the University of Georgia.

## CN1CCN(c2ncc(-c3ccc4c(Nc5ccc(OCc6cccc(F)c6)c(Cl)c5)ccnc4c3)cn2)CC1 [Compound 14]
L. major amastigote
  EC50: 1500 nM
T. congolense IL3000
  EC50: 160 nM
[1]
  EC50: 200 nM
Aqueous solubility
  solubility: < 1 µM
[2]; liver microsomes
  microsomal CLint: 54 µL/min/mg
[3]
  hepatocyte CLint: 24 µL/min/1e6 cells
LogD7.4
  logD: 3.4
T. brucei brucei CA427; 25 mg/kg i.p.
  Toxicity in infected mice: no evidence of toxicity
T. brucei brucei CA427; 25 mg/kg i.p., n = 4
  Mice showing 10-fold reduction in parasitemia: 75%
  Mice with no detectable parasitemia: one had no detectable parasitemia
T. brucei brucei CA427; 25 mg/kg i.p., vs DMSO vehicle
  Reduction in parasitemia: 10 fold

## CN1CCN(c2ncc(-c3ccc4c(Nc5cnccn5)ccnc4c3)cn2)CC1 [Compound 22]
L. major amastigote
  EC50: 2500 nM
T. congolense IL3000
  EC50: 50 nM
[1]
  EC50: 720 nM
Aqueous solubility
  solubility: 44 µM (≈ 17.5 µg/mL)
[2]
  Human Liver Microsome CLint: 180 µL/min/mg
[3]
  hepatocyte CLint: 130 µL/min/1e6 cells
LogD7.4
  LogD7.4: 3.3
T. brucei brucei CA427; p.o. once daily 60 mg/kg days 1-3, then 70 mg/kg, by day 5, vehicle 10% NMP 90% PEG
  Parasitemia vs control group: no statistically significant difference; also recorded: failed to affect parasitemia
T. brucei brucei CA427; p.o. once daily 60 mg/kg, first three days
  Toxicity in infected mice: no signs of toxicity
